For data set [1], the system named is Hepatitis C virus. The experiment in a line: Antiviral activity against HCV infected in human Huh7.5 cells carrying HCV subgenomic replicons assessed as inhibition of viral replication at 1.4 uM. The data set is classed as functional, organism-based. As to conditions: Hepacivirus hominis. Background: A replicon is a self-replicating genome or part of one, used to study replication in cells.

Data set [2] concerns Hepatitis C virus. The experiment in a line: Antiviral activity against HCV infected in human Huh7.5 cells assessed as reduction in viral RNA level measured after 72 hrs by RT-qPCR analysis. As to conditions: Hepacivirus hominis. The data set is classed as functional, organism-based. (Real-time PCR tracks product formation cycle by cycle.)
Data set [3] relates to Hepatitis C virus. Description: Antiviral activity against HCV infected in human Huh7.5 cells carrying HCV subgenomic replicons assessed as inhibition of viral replication. The data set is classed as functional, organism-based, Hepacivirus hominis.
Data set [4] deals with Hepatitis C virus. Description: Antiviral activity against HCV infected in human Huh7.5 cells assessed as reduction in viral RNA level pre-infected with virus for 2 hrs followed by compound addition and measured after 72 hrs by RT-qPCR analysis. Format: functional, organism-based. As to conditions: Hepacivirus hominis.
In data set [5] the test system is Hepatitis C virus. The experiment in a line: Antiviral activity against HCV infected in human Huh7.5 cells assessed as reduction in HCV core protein expression at 6.4 nM incubated for 72 hrs by in-cell western assay. Format: functional, organism-based. As to conditions: Hepacivirus hominis.
A short description of data set [6]: Selectivity index, ratio of CC50 for cytotoxicity against human Huh7.5.1 cells to EC50 for antiviral activity against HCV infected in human Huh7.5.1 cells. Format: toxicity, cell-based.
Data set [7] in a line: Cytotoxicity against human Huh7.5 cells infected with HCVcc assessed as reduction in cell viability incubated for 96 hrs by MTT assay. Format: toxicity, cell-based, Huh-7.5. For orientation: Tetrazolium assays rely on reduction of a dye to a coloured formazan, in cell work by metabolically active cells.
A short description of data set [8]: Cytotoxicity against human Huh7.5 cells carrying HCV subgenomic replicons assessed as reduction in cell viability incubated for 96 hrs by MTT assay. Format: toxicity, cell-based, Huh-7.5.
In data set [9] the target is Histamine H1 receptor (Homo sapiens) (UniProt P35367). The experiment in a line: Antagonist activity against H1 receptor (unknown origin) expressed in HEK cells at 1 uM relative to control. Format: functional, cell-based.
Histamine H1 receptor (Homo sapiens), sequence (P35367 whole entry): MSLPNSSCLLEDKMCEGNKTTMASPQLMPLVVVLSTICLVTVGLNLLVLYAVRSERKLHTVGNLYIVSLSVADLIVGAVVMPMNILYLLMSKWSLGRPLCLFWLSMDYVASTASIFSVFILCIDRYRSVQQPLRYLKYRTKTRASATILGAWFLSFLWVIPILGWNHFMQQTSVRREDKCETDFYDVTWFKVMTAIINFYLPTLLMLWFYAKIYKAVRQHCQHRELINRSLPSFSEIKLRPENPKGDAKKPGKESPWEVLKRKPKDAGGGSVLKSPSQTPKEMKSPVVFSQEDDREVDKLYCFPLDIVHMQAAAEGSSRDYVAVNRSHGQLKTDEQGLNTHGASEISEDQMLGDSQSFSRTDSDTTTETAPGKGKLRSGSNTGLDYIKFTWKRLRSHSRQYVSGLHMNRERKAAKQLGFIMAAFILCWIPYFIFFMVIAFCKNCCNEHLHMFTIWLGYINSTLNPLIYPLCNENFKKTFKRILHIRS
Data set [10] can be described thus: Tmax in Sprague-Dawley rat at 15 mg/kg, po administered as single dose measured upto 24 hrs by LC-MS/MS analysis. The following applies: in vivo. Format: ADME, organism-based.
For data set [11], the system named is Hepatitis C virus. The experiment in a line: Antiviral activity against HCV infected in human Huh7.5 cells assessed as reduction in HCV core protein expression measured after 72 hrs by Western blotting analysis. Format: functional, organism-based. The following applies: Hepacivirus hominis.
Data set [12] deals with Hepatitis C virus. The experiment in a line: Antiviral activity against HCVcc infected in human Huh7.5 cells assessed as inhibition of viral replication. The data set is classed as functional, organism-based, Hepacivirus hominis.
Data set [13] concerns Hepatitis C virus. The experiment in a line: Antiviral activity against HCV infected in human Huh7.5 cells assessed as reduction in HCV core protein expression pre-infected with virus for 2 hrs followed by compound addition and measured after 72 hrs by Western blotting analysis. Format: functional, organism-based. The following applies: Hepacivirus hominis.
Data set [14] relates to Hepatitis C virus. Description: Antiviral activity against HCV infected in human Huh7.5 cells assessed as reduction in HCV core protein expression preincubated for 2 hrs followed by viral infection and measured after 72 hrs by Western blotting analysis. As to conditions: Hepacivirus hominis, time 74.0 hrs. The data set is classed as functional, organism-based.
Data set [15] in a line: Half life in Sprague-Dawley rat at 15 mg/kg, po administered as single dose measured upto 24 hrs by LC-MS/MS analysis. The data set is classed as ADME, organism-based. The following applies: in vivo.
Data set [16] is described as follows: (§1) Cytotoxicity against human Huh7.5 cells assessed as reduction in cell viability incubated for 96 hrs by MTT assay. Format: toxicity, cell-based, Huh-7.5. As to conditions: Huh7.5 cells.
Data set [17] is described as follows: AUC (0 to infinity) in Sprague-Dawley rat at 15 mg/kg, po administered as single dose measured upto 24 hrs by LC-MS/MS analysis. Format: ADME, organism-based. Also on record: route oral, dose 15 mg/kg, time <=24. The following applies: in vivo.
For data set [18], the system named is Hepacivirus hominis. The experiment in a line: Binding affinity to HCV E1 protein at 12.5 to 200 uM by SPR analysis. As to conditions: dose 12.5-200 µM.
Data set [19] concerns Hepatitis C virus. Description: Antiviral activity against HCV infected in human Huh7.5 cells incubated for 72 hrs by in-cell western assay. The following applies: Huh7.5, 72 h. The data set is classed as functional, organism-based, Hepacivirus hominis.
Data set [20] can be described thus: MRT in Sprague-Dawley rat at 15 mg/kg, po administered as single dose measured upto 24 hrs by LC-MS/MS analysis. Format: ADME, organism-based. As to conditions: in vivo.
Data set [21] can be described thus: Cmax in Sprague-Dawley rat at 15 mg/kg, po administered as single dose measured upto 24 hrs by LC-MS/MS analysis. The data set is classed as ADME, organism-based. The arrangement: route oral, dose 15 mg/kg, time <=24. As to conditions: in vivo.
The test system of data set [22] is Hepatitis C virus. Description: Antiviral activity against HCV infected in human Huh7.5 cells assessed as reduction in viral RNA level preincubated for 2 hrs prior to viral infection and measured after 72 hrs by RT-qPCR analysis. As to conditions: Hepacivirus hominis, time 74.0 hrs. The data set is classed as functional, organism-based.
Data set [23] is described as follows: Plasma concentration in Sprague-Dawley rat at 15 mg/kg, po administered as single dose measured up to 24 hrs by LC-MS/MS analysis. The data set is classed as ADME, organism-based.
Data set [24] is described as follows: Selectivity index, ratio of CC50 for cytotoxicity against human Huh7.5 cells infected with HCVcc to EC50 for antiviral activity against HCVcc infected in human Huh7.5 cells. The data set is classed as toxicity, cell-based. The following applies: read-out: Ratio CC50/EC50.
For data set [25], the system named is Huh-7.5. The data set is described as §1. Format: toxicity, cell-based. As to conditions: huh-7.5, 96 h, 96 h.

Activity calls are given as the source filed them.

By EC50 is commonly meant the concentration that produces a half-maximal response. By CC50 is commonly meant the concentration that lowers cell viability or growth by half. In general, Tmax refers to the time from dosing to the highest level. By half-life is commonly meant the time needed for the level to fall by half in the phase considered. One may read the AUC(0-inf) as total exposure, with the tail of the curve extrapolated. The MRT is a mean duration of stay, worked out from the concentration-time curve. One may read the Cmax as the highest concentration seen after dosing. Turning to `CN1CCCN(c2ccc(C#N)c(CN3CCN(C(c4ccccc4)c4ccc(Cl)cc4)CC3)c2)CC1` (stereo not given), the outcome in data set [1], in data set [2], in data set [9], in [14] and in [22] was inactive. In addition, the EC50 in data set [3] is more than 1.6 µM; in data set [12] it was 0.00333 µM; in data set [19], 0.004 µM. For the same compound, the outcome in [4], in [5], in [11], in [13] and in [18] was Active. Besides, the selectivity ratio in [6] (read-out: Ratio CC50/EC50) worked out at 1930. Besides, the CC50 at 96 h in data set [7] is 3.72 µM; in [8], 5.22 µM; in data set [16], 7.34 µM. In data set [10], the Tmax was determined as 5.33 h. This compound also gave a half-life in [15] of 4.87 h. Besides, the AUC(0-inf) in data set [17] was 848 ng·h/mL. In data set [20], this compound returned a mean residence time MRT of 8.59 h. In addition, the Cmax in data set [21] is 97.9 ng/mL. This compound returned a concentration at 24 h in [23] of 6.06 ng/mL.

On to `CN1CCCN(c2ccc(C#N)c(CN3CCN(C(c4ccc(F)cc4)c4ccc(F)cc4)CC3)c2)CC1`, for which the result in data set [1], in [2], in data set [9], in [14] and in data set [22] was inactive. Besides, the figures for the EC50 in data set [3], in data set [12] and in data set [19] were more than 1.6 µM, 0.00289 µM and 0.005 µM, respectively. The result in data set [4], in data set [5], in data set [11], in [13] and in [18] was Active. In addition, the selectivity ratio in data set [6] (read-out: Ratio CC50/EC50) was 1130; in [24] it was 1140. For the same compound, the CC50 at 96 h in [7] was 3.31 µM; in [8] it was 3.95 µM; in [16] it was 6.24 µM. Also, the Tmax in data set [10] worked out at 2.69 h. In data set [15], this compound gave a half-life of 5.66 h. The AUC(0-inf) in data set [17] is 639 ng·h/mL. This compound also yielded an MRT in data set [20] of 9.43 h. Moreover, the highest concentration (Cmax) in data set [21] came out at 78 ng/mL. Further, in data set [23], the concentration at 24 h amounted to 4.98 ng/mL.

For the compound `CN(C)CCN(C)c1ccc(C#N)c(CN2CCN(c3ccc(Cl)cc3)CC2)c1`, the EC50 is more than 1.6 µM in data set [3], 0.26 µM in data set [12] and 0.175 µM in [19]. Also, the outcome in data set [5] and in [9] was inactive. Moreover, the selectivity ratio was more than 114 in data set [6] (read-out: Ratio), more than 81 in data set [6] (read-out: Ratio CC50/EC50) and 72 in data set [24]. The figures for the CC50 at 96 h in data set [7], in data set [8] and in data set [16] were 18.8 µM, 121 µM and 21.2 µM, respectively. Besides, in [25], the CC50 was more than 20 µM. Also, in data set [18], the outcome was Active.

These data come from ChEMBL document CHEMBL5038651, “Design, Synthesis, and Biological Evaluation of 2-((4-Bisarylmethyl-piperazin-1-yl)methyl)benzonitrile Derivatives as HCV Entry Inhibitors” (J Med Chem, 2022).
